The subject of this experiment is CEM cells HIV-1 protection, formazan growth assay. As to the kind of experiment: NCI AIDS Antiviral Assay. The note with it: for pIC50: measured here: growth of uninfected CEM cells. In short, it runs like this: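 Human CEM cells, uninfected and HIV-1-infected, received five drug concentrations, and growth was read by soluble formazan assay. Compounds giving at least 50% protection were retested; reproducible 100% protection defined confirmed active.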

pEC50, pIC50: −log10 of the molar value. Calls of active or inactive are those of the source.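 Rule for the calls: active = compounds giving half or more protection of infected cells from virus-caused growth loss, again on retest; inactive = the rest.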

Consider `S=C1OC2C3C4CC5C3C(O1)C1C5C4C21` (stereo not drawn), for which the outcome was inactive.
Take `CC(C)[C@@]12O[C@@H]1CC13OC1[C@@H](O)CC[C@@]32O` (stereo partly drawn): the pEC50 is under 3.70 and the pIC50 was under 3.70.
Regarding `OC1C2[C@@H](O)CCN2CC[C@H]1O` (stereo partly drawn), the pEC50 is under 3.12 and the pIC50 is under 3.12.
As to `Cc1nc2ccccc2nc1CC(=O)C(=O)Nc1ccc(Cl)cc1Cl`, the negative logarithm of the EC50 (pEC50) was 3.52 and the pIC50 was 3.46.
For the molecule `CCNc1ncnc2c1ncn2C1OC(CO)CC1F` (stereo not drawn), the pEC50 is under 3.65 and the pIC50 was under 3.65.
As to `c1cc2nnnn2nc1N1CCCC1`, the pEC50 is under 3.70 and the pIC50 is under 3.70.
Turning to `C=C(C)c1nc(Oc2ccccc2)nc(Oc2ccccc2)n1`, the pEC50 was under 3.70 and the pIC50 is 5.45.
Regarding `N[C@H](C(=O)O)[C@H](Cl)CC(=O)O`, the pEC50 is under 3.61 and the pIC50 was under 3.61.
Take `COc1ccc(C2S/C(=C\c3cccc(O)c3)C(=O)N2NC(=O)Cc2ccccc2)cc1` (stereo not drawn): the pEC50 was under 3.95 and the pIC50 is under 3.95.
On to `O=C(Nc1ccc(C2=NCCN2)cc1)c1ccc(C(=O)Nc2ccc(C3=NCCN3)cc2)c(Cl)c1`, for which the pEC50 is under 3.70 and the pIC50 is 4.31.
For the molecule `O=S(=O)(CC#CCO)c1ccc2ccccc2c1`, the result was inactive.
Turning to `O=S1CCS(=O)CCS(=O)CC1` (stereo not drawn), the pEC50 is under 4.78 and the pIC50 was under 4.78.
Turning to `COc1ccc(N2C(=O)C3c4[nH]c5ccc(OC)cc5c4C4CCC(C(C)C)CC4C3C2=O)cc1` (stereo not drawn), the pEC50 is under 4.30 and the pIC50 is under 4.30.
Take `COc1cc2c(c(O)c1OC)C(O)C1CCC(=O)N1C2c1cccc2ccccc12` (stereo not drawn): the pEC50 is under 3.70 and the pIC50 was 4.28.
Taken in the same sequence, the figures for `C/C(=N/OC(=O)N(C)C)c1cccc(Cl)c1` were under 3.70 and 3.78.
For the molecule `Clc1c2ccccc2nc2c1[nH]c1ccccc12`, the pEC50 is under 3.70 and the pIC50 was 4.95.
Taken in the same sequence, the figures for `Cc1ccc(S(=O)(=O)NCC2CCCCC2=O)cc1` (stereo not drawn) were under 3.89 and 3.91.
The like results for `Cc1cc(=O)[nH]c(NN2C(Cl)C(=O)C2c2c(O)ccc3ccccc23)n1` (stereo not drawn) were, in that order, under 3.74 and 4.62.
As for `COc1ccc(OC(C)C(=O)O)c2c(=O)ccccc12` (stereo not drawn), the result was inactive.
Same read-out and setting: the same measure for `O=C(CN1CCCC1)Nc1ccc2c(c1)C1Oc3ccccc3CC1CO2` (stereo not drawn): “inactive”.
In the case of `CC(=O)OCC1OC(OCCCCCCO)C(OC(C)=O)C(OC(C)=O)C1OC(C)=O` (stereo not drawn), the pEC50 was under 3.70 and the pIC50 was under 3.70.
In the case of `NC(=O)c1ccc(NC=O)cc1`, the pEC50 was under 2.82 and the pIC50 is 3.01.
Turning to `NC(=O)c1ncn(CCCCCO)c1N`, the pEC50 was under 3.70 and the pIC50 is under 3.70.
For `c1ccc(N=C2c3ccsc3C(=Nc3ccccc3)c3ccsc32)cc1`, the pEC50 was under 3.70 and the pIC50 was 5.60.
On to `O=[N+]([O-])c1ccc(C2ON=C(c3ccccc3)N2C23CC4CC(CC(C4)C2)C3)cc1` (stereo not drawn), for which the pEC50 was under 3.70 and the pIC50 was 3.73.
The like results for `COC(=O)c1cc2nc(NC(C)=O)sc2n1C` were, in that order, under 3.70 and under 3.70.
The like results for `c1ccc2nn(C3CCCO3)nc2c1` (stereo not drawn) were, in that order, under 3.70 and under 3.70.
The like results for `C[N+](C)([O-])Cc1cccc(NC(=O)c2ccc(C(=O)Nc3cccc(C[N+](C)(C)[O-])c3)cc2)c1` were, in that order, under 3.70 and under 3.70.
On to `C[C@]12CC[C@H]3[C@@H](CCC4=CC(=O)C=C[C@@]43O)[C@@H]1CCC2=O`, for which the pEC50 was under 3.70 and the pIC50 is under 3.70.
As to `CC(=O)OCC(OC(C)=O)C(Cl)CCl` (stereo not drawn), the pEC50 is under 3.70 and the pIC50 was under 3.70.
For `CCCCCCCCS(=O)(=O)c1ccc(O)c(C(=O)Nc2ccc(C(F)(F)F)cc2)c1`, the pEC50 is under 4.39 and the pIC50 was 5.80.
Regarding `COC(=O)c1cc(C(CCl)c2cc(C(=O)OC)c(O)cc2C)c(C)cc1O`, the pEC50 was under 3.70 and the pIC50 was 3.95.
For the molecule `COc1ccc(C(=O)C(CC2C(=O)CC(C)(C)C(C(=O)C(=O)Nc3c(C)cccc3C)C2=O)c2ccc(OC)cc2)cc1` (stereo not drawn), the pEC50 is under 3.37 and the pIC50 was 3.43.
Take `S=c1nc(N2CCCCC2)ss1`: the outcome was inactive.
As for `N#C/C(=C(\O)c1ccccc1)c1nc2ccccc2[nH]1`, the pEC50 is under 4.16 and the pIC50 was under 4.16.
As to `CCC(=O)N(C)[C@@H](C)C(=O)O[C@H]1CC(=O)N(C)c2cc(cc(OC)c2Cl)C/C(C)=C/C=C[C@@H](OC)[C@@]2(O)C[C@H](OC(=O)N2)[C@@H](C)[C@@H]2O[C@@]12C`, the outcome was inactive.
The molecule `COC(=O)COc1ccc([As](=O)(O)O)cc1` gave a pEC50 of under 3.70 and a pIC50 of under 3.70.
As for `COc1ccc(C2CC(=O)c3ccccc3O2)cc1OC` (stereo not drawn), the pEC50 is under 3.70 and the pIC50 is 4.39.
The like results for `NC(N)=NS(=O)(=O)c1ccc(-n2sc3ccccc3c2=O)cc1` were, in that order, 5.36 and 4.72.
Taken in the same sequence, the figures for `O=C1NC(=O)C(=Cc2ccccc2F)C(=O)N1` were under 2.97 and under 2.97.
Take `O=C(c1ccc(OC(=O)c2ccccc2O)cc1)c1ccc(OC(=O)c2ccccc2O)cc1`: the result was inactive.
On to `CCSc1cc(C(=O)OC)c2n(c1=O)CCCC2`, for which the pEC50 is under 3.70 and the pIC50 is under 3.70.
Turning to `Cc1nc2c(c(=O)[nH]1)S/C(=C(/C#N)c1nc3ccccc3[nH]1)N2c1ccccc1`, the pEC50 is under 5.44 and the pIC50 is under 5.44.
For `c1ccc(-c2sc(-c3ccccc3)c3c2C(c2ccccc2)c2c(-c4ccccc4)sc(-c4ccccc4)c2C3c2ccccc2)cc1` (stereo not drawn), the result was inactive.
In the case of `CCOC(=O)NC(OC)(C(F)(F)F)C(F)(F)F`, the pEC50 was under 3.70 and the pIC50 is under 3.70.
In the case of `Cc1cccc2c(=O)c3cccc(CC(=O)O)c3oc12`, the pEC50 was under 3.70 and the pIC50 is under 3.70.
Take `O=C1CC23CC(=O)CC2(C1)c1ccccc1C3=O` (stereo not drawn): the pEC50 is under 3.41 and the pIC50 is under 3.41.
On to `COc1ccc(OC(C)C(=O)O)c2c1CCCC2=O` (stereo not drawn), for which the outcome was inactive.
For `CC(=O)NNC(=O)c1ccccc1O`, the pEC50 is under 3.70 and the negative logarithm of the IC50 (pIC50) is 4.53.
The like results for `O=C1CCC2C(O)c3cc4c(cc3C(c3ccc5c(c3)OCO5)N12)OCO4` (stereo not drawn) were, in that order, under 3.70 and under 3.70.
Taken in the same sequence, the figures for `CCOC(=O)c1[nH]c(Br)c(-c2ccc(OC)c(OC)c2)c1Br` were under 3.70 and 7.20.
The like results for `COc1c(Cl)cc(C(=CCCCCN[C@@H]2CC[C@@]3(C)[C@@H](CC[C@@H]4[C@@H]3CC[C@]3(C)[C@@H](C(C)CCCC(C)C)CC[C@@H]43)C2)c2cc(Cl)c(OC)c(C(=O)O)c2)cc1C(=O)O` (stereo partly drawn) were, in that order, under 3.70 and under 3.70.
Turning to `Cc1nc(C)c(N2CCN(C#N)CC2)c(=O)[nH]1`, the pEC50 was under 3.70 and the pIC50 was under 3.70.
Take `COc1ccc(-c2nc(-c3cnccn3)n(COCCO)n2)cc1`: the pEC50 is under 3.70 and the pIC50 was under 3.70.
Take `COC(=O)C1(NC(=O)C(Cc2ccccc2)N(C(=O)OC(C)(C)C)C(=O)OC(C)(C)C)CCCC1` (stereo not drawn): the pEC50 was under 3.70 and the pIC50 is 3.96.
Taken in the same sequence, the figures for `O=c1c2cc(-c3ccccc3)cnc2sn1-c1ccc(Oc2ccccc2)cc1` were 4.16 and 3.96.
With `CC1(C)COC(c2cccc(C3=NC(C)(C)CO3)c2)=N1`, the pEC50 was under 3.70 and the pIC50 is under 3.70.
`Cn1cc(C(=O)c2ccccc2)ccc1=O`: the pEC50 was under 3.21 and the pIC50 is 3.32.
The like results for `O=c1c2cc([N+](=O)[O-])cnc2sn1-c1ccc(Oc2ccccc2)cc1` were, in that order, 4.43 and 4.36.
Taken in the same sequence, the figures for `Cc1cc(=O)n2nc(CCl)sc2n1` were under 3.70 and 5.03.
The like results for `CCc1cccc(C)c1NC(=O)C1=C(C)NC(C)=C(C(=O)Nc2c(C)cccc2CC)C1c1ccc2c(c1)OCO2` were, in that order, under 4.61 and under 4.61.
With `c1scc2c1COCCOCCOCCOCc1cscc1COCCOCCOCCOC2`, the pEC50 is under 3.46 and the negative logarithm of the IC50 (pIC50) is under 3.46.
Turning to `COc1cc2[nH]c3c(c2cc1OC)CCN[C@]31CC[C@]2(CC3c4c(cc(OC)c(O)c42)CCN3C)C[C@H]1OC` (stereo partly drawn), the outcome was inactive.
With `CCSSc1ccccc1C(=O)O`, the pEC50 is under 3.70 and the pIC50 was 4.49.
The like results for `CC1CC(=O)C(C(O)CC2CC(=O)N(c3ccccc3)C(=O)C2)C(C)C1` (stereo not drawn) were, in that order, under 3.70 and under 3.70.
Taken in the same sequence, the figures for `C(=C/c1ccnc2ccccc12)/c1cccs1` were 7.20 and 4.32.
Taken in the same sequence, the figures for `O=c1nc2c(c(-c3ccc(Br)cc3)[nH]1)COC/C2=C\c1ccc(Br)cc1` were under 3.70 and 4.12.
On to `C1CSCCSCCCS[C@@H]2CCCCC2SC1` (stereo partly drawn), for which the pEC50 is under 4.00 and the pIC50 was under 4.00.
Regarding `NC(N)=NS(=O)(=O)c1ccc(NNc2c3ccccc3nc3ccccc23)cc1`, the pEC50 is under 3.70 and the pIC50 is 5.97.
With `CCc1c(O)nc(Nc2nc3ccccc3[nH]2)[nH]c1=O`, the pEC50 is under 3.70 and the pIC50 is under 3.70.
Consider `CCOC(=O)c1nc2ccccc2nc1NCc1ccc(Cl)cc1Cl`, for which the pEC50 was under 4.00 and the pIC50 was 4.14.
The like results for `CCC1(c2cccc(C)c2)Oc2ccccc2-n2cccc2C1=O` (stereo not drawn) were, in that order, 6.27 and 3.90.
As for `O=C(Nc1ccc(Cl)c(Cl)c1)OCC#CCOC(=O)Nc1ccc(Cl)c(Cl)c1`, the pEC50 is under 3.70 and the pIC50 was 5.05.
Consider `COC(=O)c1c2c(cc3c1CC1(Cc4cc5c(cc4C1)CCC5)C3)CCC2`, for which the pEC50 was under 3.70 and the pIC50 is under 3.70.

Source of the values: PubChem BioAssay AID179 (DTP/NCI, 2004).
